Experimental data taken from the kinase profiling compilation of Christmann-Franck et al. (2016).

Tests used:
Assay in all cases: KINOMEscan competition binding
Details in all cases: compound 10.0 µM
CAMK1D (human) = CAMK1D (human) (UniProt Q8IU85)
TSSK1B (human) = TSSK1B (human) (UniProt Q9BXA7)
PIP5K1A (human) = PIP5K1A (human) (UniProt Q99755)
PRPF4B (human) = PRPF4B (human) (UniProt Q13523)
GRK4 (human) = GRK4 (human) (UniProt P32298)
MAP4K3 (human) = MAP4K3 (human) (UniProt Q8IVH8)
CAMK2A (human) = CAMK2A (human) (UniProt Q9UQM7)
PIK3C2G (human) = PIK3C2G (human) (UniProt O75747)
PRKCE (human) = PRKCE (human) (UniProt Q02156)
PRKCE (human), sequence (Q02156 whole entry, looked up): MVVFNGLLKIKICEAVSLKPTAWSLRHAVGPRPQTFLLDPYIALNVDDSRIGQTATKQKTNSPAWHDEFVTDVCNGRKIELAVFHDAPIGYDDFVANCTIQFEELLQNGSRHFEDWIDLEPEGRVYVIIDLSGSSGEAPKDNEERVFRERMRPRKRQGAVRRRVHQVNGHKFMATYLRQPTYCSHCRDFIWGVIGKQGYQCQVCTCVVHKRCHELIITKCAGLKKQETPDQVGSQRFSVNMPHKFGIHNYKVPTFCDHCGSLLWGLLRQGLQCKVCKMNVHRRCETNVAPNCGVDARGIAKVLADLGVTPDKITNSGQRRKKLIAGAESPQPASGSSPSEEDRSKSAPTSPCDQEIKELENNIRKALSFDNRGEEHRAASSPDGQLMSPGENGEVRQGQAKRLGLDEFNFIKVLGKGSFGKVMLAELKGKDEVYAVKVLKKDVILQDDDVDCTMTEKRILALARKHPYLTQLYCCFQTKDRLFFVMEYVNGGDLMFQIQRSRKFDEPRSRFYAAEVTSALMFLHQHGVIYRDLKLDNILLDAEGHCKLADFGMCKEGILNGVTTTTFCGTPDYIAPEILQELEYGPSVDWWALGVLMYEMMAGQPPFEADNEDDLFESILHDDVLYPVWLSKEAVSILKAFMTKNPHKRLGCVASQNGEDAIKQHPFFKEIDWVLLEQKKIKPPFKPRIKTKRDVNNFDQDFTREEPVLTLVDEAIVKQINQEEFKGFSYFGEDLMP

CDK8 (human) = CDK8 (human) (UniProt P49336)
LIMK1 (human) = LIMK1 (human) (UniProt P53667)
STK35 (human) = STK35 (human) (UniProt Q8TDR2)
PAK4 (human) = PAK4 (human) (UniProt O96013)
EPHA7 (human) = EPHA7 (human) (UniProt Q15375)
RIPK1 (human) = RIPK1 (human) (UniProt Q13546)
TEK (human) = TEK (human) (UniProt Q02763)
CSNK1A1L (human) = CSNK1A1L (human) (UniProt Q8N752)
CSNK1A1L (human), sequence (Q8N752 whole entry, looked up): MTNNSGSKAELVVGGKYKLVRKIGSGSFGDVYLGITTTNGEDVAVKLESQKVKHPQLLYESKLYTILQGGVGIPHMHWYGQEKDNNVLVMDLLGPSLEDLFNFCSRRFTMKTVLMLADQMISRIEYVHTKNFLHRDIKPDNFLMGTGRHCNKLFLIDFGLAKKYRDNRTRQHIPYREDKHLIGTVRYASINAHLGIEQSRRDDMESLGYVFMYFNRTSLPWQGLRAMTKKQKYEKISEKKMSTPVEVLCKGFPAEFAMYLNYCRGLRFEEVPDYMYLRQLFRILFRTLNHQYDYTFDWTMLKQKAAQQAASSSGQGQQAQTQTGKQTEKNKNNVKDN

MELK (human) = MELK (human) (UniProt Q14680)
MELK (human), sequence (Q14680 whole entry, looked up): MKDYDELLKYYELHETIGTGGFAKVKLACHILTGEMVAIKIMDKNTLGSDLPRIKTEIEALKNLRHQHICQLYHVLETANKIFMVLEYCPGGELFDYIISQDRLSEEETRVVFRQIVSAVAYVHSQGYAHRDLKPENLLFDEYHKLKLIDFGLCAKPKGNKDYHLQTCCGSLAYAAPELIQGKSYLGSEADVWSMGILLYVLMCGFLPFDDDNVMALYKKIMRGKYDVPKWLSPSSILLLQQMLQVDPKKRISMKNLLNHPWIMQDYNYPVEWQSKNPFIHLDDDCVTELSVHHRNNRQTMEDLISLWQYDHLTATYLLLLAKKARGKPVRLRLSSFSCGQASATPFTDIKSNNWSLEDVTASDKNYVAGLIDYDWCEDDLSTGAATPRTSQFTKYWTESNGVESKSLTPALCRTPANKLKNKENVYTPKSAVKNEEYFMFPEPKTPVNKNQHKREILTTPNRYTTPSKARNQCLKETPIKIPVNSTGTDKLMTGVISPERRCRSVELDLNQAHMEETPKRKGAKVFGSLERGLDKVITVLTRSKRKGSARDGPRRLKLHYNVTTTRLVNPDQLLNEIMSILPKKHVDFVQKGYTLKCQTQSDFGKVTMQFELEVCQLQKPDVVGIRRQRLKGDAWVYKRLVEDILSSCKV

SBK1 (human) = SBK1 (human) (UniProt Q52WX2)
CDK18 (human) = CDK18 (human) (UniProt Q07002)
NTRK1 (human) = NTRK1 (human) (UniProt P04629)
NTRK1 (human), sequence (P04629 whole entry, looked up): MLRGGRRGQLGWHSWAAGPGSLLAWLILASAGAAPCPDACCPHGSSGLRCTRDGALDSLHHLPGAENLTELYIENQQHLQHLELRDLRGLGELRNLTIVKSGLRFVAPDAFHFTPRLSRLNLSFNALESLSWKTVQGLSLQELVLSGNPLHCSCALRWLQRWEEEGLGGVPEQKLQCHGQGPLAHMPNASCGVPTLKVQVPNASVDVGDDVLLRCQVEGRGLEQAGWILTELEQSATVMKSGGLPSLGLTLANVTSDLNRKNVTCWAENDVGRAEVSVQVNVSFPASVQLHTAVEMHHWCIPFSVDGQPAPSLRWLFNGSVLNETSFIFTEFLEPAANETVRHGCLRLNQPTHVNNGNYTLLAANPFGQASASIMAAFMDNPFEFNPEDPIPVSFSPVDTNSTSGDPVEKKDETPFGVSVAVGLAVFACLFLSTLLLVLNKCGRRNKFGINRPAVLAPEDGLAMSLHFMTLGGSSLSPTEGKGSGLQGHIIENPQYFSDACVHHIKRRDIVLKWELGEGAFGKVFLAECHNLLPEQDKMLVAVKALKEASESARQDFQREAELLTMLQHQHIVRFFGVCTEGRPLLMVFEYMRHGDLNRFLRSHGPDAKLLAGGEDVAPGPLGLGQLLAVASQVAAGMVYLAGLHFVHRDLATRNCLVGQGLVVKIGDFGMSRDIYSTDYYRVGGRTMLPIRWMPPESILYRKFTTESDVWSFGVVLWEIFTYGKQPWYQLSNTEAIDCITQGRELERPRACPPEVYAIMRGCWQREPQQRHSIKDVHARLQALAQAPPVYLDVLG

FGFR1 (human) = FGFR1 (human) (UniProt P11362)
STK38 (human) = STK38 (human) (UniProt Q15208)
GAK (human) = GAK (human) (UniProt O14976)
MAP3K9 (human) = MAP3K9 (human) (UniProt P80192)
PIM3 (human) = PIM3 (human) (UniProt Q86V86)
CDK13 (human) = CDK13 (human) (UniProt Q14004)
DMPK (human) = DMPK (human) (UniProt Q09013)
DMPK (human), sequence (Q09013 whole entry, looked up): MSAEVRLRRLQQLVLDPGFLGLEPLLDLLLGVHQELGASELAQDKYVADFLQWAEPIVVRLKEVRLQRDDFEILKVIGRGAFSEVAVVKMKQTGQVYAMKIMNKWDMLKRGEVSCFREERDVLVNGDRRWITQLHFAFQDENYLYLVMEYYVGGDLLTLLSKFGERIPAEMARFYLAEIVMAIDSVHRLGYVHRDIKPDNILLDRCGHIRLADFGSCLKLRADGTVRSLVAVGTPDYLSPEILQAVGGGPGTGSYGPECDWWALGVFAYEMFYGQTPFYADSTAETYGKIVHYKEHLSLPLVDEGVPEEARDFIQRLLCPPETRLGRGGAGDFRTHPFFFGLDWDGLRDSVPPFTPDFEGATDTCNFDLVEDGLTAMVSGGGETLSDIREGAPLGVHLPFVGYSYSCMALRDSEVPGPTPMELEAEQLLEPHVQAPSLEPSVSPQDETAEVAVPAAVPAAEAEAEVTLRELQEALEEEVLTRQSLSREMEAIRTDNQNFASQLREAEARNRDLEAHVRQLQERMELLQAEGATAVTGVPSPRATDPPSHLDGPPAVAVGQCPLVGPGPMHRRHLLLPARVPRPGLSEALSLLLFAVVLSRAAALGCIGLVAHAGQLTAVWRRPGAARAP

TYRO3 (human) = TYRO3 (human) (UniProt Q06418)
CRK2 (P.falciparum) = CRK2 (P.falciparum) (UniProt P61075)
[1] = target: TYK2 JH1 catalytic (human) (UniProt P29597)
TYK2 JH1 catalytic (human), sequence (P29597 whole entry, looked up): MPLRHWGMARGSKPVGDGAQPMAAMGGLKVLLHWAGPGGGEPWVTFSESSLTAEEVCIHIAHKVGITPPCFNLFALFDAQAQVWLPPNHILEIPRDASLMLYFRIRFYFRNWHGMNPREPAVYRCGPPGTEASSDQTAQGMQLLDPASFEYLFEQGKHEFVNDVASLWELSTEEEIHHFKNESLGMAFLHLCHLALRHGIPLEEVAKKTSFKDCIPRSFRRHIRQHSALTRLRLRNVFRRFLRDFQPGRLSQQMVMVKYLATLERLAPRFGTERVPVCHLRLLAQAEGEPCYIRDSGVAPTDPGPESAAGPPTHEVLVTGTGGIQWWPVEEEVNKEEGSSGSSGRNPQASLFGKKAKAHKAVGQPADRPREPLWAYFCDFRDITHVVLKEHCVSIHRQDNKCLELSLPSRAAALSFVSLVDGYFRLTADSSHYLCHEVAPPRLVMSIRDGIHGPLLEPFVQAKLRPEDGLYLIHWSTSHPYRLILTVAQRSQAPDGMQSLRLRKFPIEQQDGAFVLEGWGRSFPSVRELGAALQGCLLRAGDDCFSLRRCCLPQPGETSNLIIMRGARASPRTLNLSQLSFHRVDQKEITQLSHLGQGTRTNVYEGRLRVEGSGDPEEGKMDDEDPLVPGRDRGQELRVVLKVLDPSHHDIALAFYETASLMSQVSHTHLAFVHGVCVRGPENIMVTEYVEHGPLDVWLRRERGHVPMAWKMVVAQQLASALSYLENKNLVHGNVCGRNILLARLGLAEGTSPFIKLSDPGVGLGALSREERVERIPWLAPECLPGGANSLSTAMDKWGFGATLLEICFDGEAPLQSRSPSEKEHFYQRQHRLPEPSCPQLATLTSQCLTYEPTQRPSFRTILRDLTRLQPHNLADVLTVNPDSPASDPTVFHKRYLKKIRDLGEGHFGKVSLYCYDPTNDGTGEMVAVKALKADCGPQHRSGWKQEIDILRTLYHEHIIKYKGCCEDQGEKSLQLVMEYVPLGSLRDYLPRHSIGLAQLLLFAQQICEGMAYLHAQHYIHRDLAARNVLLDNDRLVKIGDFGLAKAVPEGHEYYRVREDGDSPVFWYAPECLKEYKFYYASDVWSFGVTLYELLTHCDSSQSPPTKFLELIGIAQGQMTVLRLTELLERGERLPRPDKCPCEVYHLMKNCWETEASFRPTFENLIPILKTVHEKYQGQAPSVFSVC

VRK2 (human) = VRK2 (human) (UniProt Q86Y07)
PKN1 (human) = PKN1 (human) (UniProt Q16512)
PIK3CB (human) = PIK3CB (human) (UniProt P42338)
ACVRL1 (human) = ACVRL1 (human) (UniProt P37023)
RPS6KA6 KD1 (human) = RPS6KA6 KD1 (human) (UniProt Q9UK32)
TGFBR1 (human) = TGFBR1 (human) (UniProt P36897)
TAOK3 (human) = TAOK3 (human) (UniProt Q9H2K8)
PKMYT1 (human) = PKMYT1 (human) (UniProt Q99640)
NTRK2 (human) = NTRK2 (human) (UniProt Q16620)

CAMK1D (human), sequence (Q8IU85 whole entry, looked up): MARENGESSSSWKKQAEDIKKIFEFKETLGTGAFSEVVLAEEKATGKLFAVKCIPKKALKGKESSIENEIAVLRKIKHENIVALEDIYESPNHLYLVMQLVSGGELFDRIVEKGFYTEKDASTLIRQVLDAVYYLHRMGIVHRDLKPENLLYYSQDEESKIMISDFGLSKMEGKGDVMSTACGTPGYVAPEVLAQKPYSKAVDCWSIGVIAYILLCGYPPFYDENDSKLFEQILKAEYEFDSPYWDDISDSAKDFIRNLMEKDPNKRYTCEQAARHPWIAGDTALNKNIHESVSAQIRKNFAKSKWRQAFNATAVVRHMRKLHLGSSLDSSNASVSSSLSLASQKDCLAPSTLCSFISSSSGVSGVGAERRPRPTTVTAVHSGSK

SMILES	kinase still bound, per cent of control (CAMK1D (human))	kinase still bound, per cent of control (TSSK1B (human))	kinase still bound, per cent of control (PIP5K1A (human))	kinase still bound, per cent of control (PRPF4B (human))	kinase still bound, per cent of control (GRK4 (human))	kinase still bound, per cent of control (MAP4K3 (human))	kinase still bound, per cent of control (CAMK2A (human))	kinase still bound, per cent of control (PIK3C2G (human))	kinase still bound, per cent of control (PRKCE (human))	kinase still bound, per cent of control (CDK8 (human))	kinase still bound, per cent of control (LIMK1 (human))	kinase still bound, per cent of control (STK35 (human))	kinase still bound, per cent of control (PAK4 (human))	kinase still bound, per cent of control (EPHA7 (human))	kinase still bound, per cent of control (RIPK1 (human))	kinase still bound, per cent of control (TEK (human))	kinase still bound, per cent of control (CSNK1A1L (human))	kinase still bound, per cent of control (MELK (human))	kinase still bound, per cent of control (SBK1 (human))	kinase still bound, per cent of control (CDK18 (human))	further results
COc1cc2c(Nc3ccc(NC(=O)c4ccccc4)cc3)ncnc2cc1OCCCN1CCOCC1	62%	100%	100%	97%	100%	70%	85%	14%	100%	100%	100%	64%	100%	84%	100%	33%	99%	42%	92%	75%	kinase still bound, per cent of control (NTRK1 (human)): 16%; kinase still bound, per cent of control (FGFR1 (human)): 94%; kinase still bound, per cent of control (STK38 (human)): 92%; kinase still bound, per cent of control (GAK (human)): 60%; kinase still bound, per cent of control (MAP3K9 (human)): 70%; kinase still bound, per cent of control (PIM3 (human)): 100%; kinase still bound, per cent of control (CDK13 (human)): 100%; kinase still bound, per cent of control (DMPK (human)): 100%; kinase still bound, per cent of control (TYRO3 (human)): 60%; kinase still bound, per cent of control (CRK2 (P.falciparum)): 100%; kinase still bound, per cent of control [1]: 84%; kinase still bound, per cent of control (VRK2 (human)): 100%; kinase still bound, per cent of control (PKN1 (human)): 100%; kinase still bound, per cent of control (PIK3CB (human)): 81%; kinase still bound, per cent of control (ACVRL1 (human)): 85%; kinase still bound, per cent of control (RPS6KA6 KD1 (human)): 68%; kinase still bound, per cent of control (TGFBR1 (human)): 100%; kinase still bound, per cent of control (TAOK3 (human)): 95%; kinase still bound, per cent of control (PKMYT1 (human)): 89%; kinase still bound, per cent of control (NTRK2 (human)): 17%
CC1=C(C(=O)Nc2cc3cn[nH]c3cc2F)C(c2ccc(C(F)(F)F)cc2)CC(=O)N1 (stereo not given)	97%	98%	89%	86%	99%	77%	100%	52%	100%	79%	100%	96%	85%	80%	84%	83%	98%	99%	78%	100%	kinase still bound, per cent of control (NTRK1 (human)): 91%; kinase still bound, per cent of control (FGFR1 (human)): 73%; kinase still bound, per cent of control (STK38 (human)): 19%; kinase still bound, per cent of control (GAK (human)): 100%; kinase still bound, per cent of control (MAP3K9 (human)): 93%; kinase still bound, per cent of control (PIM3 (human)): 92%; kinase still bound, per cent of control (CDK13 (human)): 24%; kinase still bound, per cent of control (DMPK (human)): 100%; kinase still bound, per cent of control (TYRO3 (human)): 100%; kinase still bound, per cent of control (CRK2 (P.falciparum)): 100%; kinase still bound, per cent of control [1]: 20%; kinase still bound, per cent of control (VRK2 (human)): 87%; kinase still bound, per cent of control (PKN1 (human)): 19%; kinase still bound, per cent of control (PIK3CB (human)): 86%; kinase still bound, per cent of control (ACVRL1 (human)): 100%; kinase still bound, per cent of control (RPS6KA6 KD1 (human)): 42%; kinase still bound, per cent of control (TGFBR1 (human)): 100%; kinase still bound, per cent of control (TAOK3 (human)): 96%; kinase still bound, per cent of control (PKMYT1 (human)): 100%; kinase still bound, per cent of control (NTRK2 (human)): 76%
